The values below come from ChEMBL document CHEMBL1201862, “PubChem BioAssay data set” (2004).

Some test systems named below: A498; ACHN; CAKI-1; DU-145; HL-60; IGROV-1; MCF7; MDA-MB-231; MDA-N; Malme-3M; NCI-H23; NCI-H460; NCI/ADR-RES; OVCAR-3; OVCAR-8; PC-3; SK-OV-3; SN12C; U-251; UACC-257.
Common to all, as to assay: NCI tumour cell line growth inhibition, 48 h

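Five concentrations, 48 hours, 96-well plates. GI50 marks 50% less growth.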 Activity calls are given as the source filed them. Cut-off read from the data, not from the text of the source: active = GI50 up to about 1.1 µM and inactive = higher. Where only a bound is given, the exact number is not on record here.

Consider `O=C1c2cscc2C(=O)C1(O)O`, for which the GI50 with A498 is > 100 µM (inactive); in the experiment with ACHN it was > 100 µM (inactive); in the experiment on CAKI-1, 30.8 µM (inactive); in the experiment with DU-145, > 100 µM (inactive); in the experiment on HL-60, 26.1 µM (inactive); in the experiment on IGROV-1, > 100 µM (inactive). Further, the GI50 is > 100 µM (inactive) with MCF7; 74.1 µM (inactive) with MDA-MB-231; 40.4 µM (inactive) in the experiment on MDA-N; 23.4 µM (inactive) in the experiment with Malme-3M; 22.1 µM (inactive) in the experiment with NCI-H23; > 100 µM (inactive) in the experiment on NCI-H460. Also, the GI50 with NCI/ADR-RES is > 100 µM (inactive); in the experiment on OVCAR-3, 25.2 µM (inactive); with OVCAR-8, 32.9 µM (inactive); with PC-3, 78 µM (inactive); in the experiment on SK-OV-3 it was > 100 µM (inactive); in the experiment on SN12C, 20 µM (inactive). Besides, the GI50 was > 100 µM (inactive) in the experiment on U-251 and 24.9 µM (inactive) in the experiment on UACC-257.
Consider `Cc1sc2[nH]c(=O)oc(=O)c2c1C`, for which the GI50 in the experiment with A498 is > 100 µM (inactive); in the experiment with ACHN it was 97.7 µM (inactive); in the experiment on CAKI-1, 35.8 µM (inactive); in the experiment on DU-145, > 100 µM (inactive); in the experiment with HL-60, 37 µM (inactive); in the experiment on IGROV-1, > 75.3 µM (inactive). Also, the GI50 in the experiment on MCF7 was 26.1 µM (inactive); in the experiment on MDA-MB-231, > 70.8 µM (inactive); with MDA-N, 58.2 µM (inactive); with Malme-3M, > 72.1 µM (inactive); in the experiment on NCI-H23, > 100 µM (inactive); in the experiment with NCI-H460, > 100 µM (inactive). In addition, the GI50 with NCI/ADR-RES was 35.1 µM (inactive); with OVCAR-3, 55 µM (inactive); in the experiment with OVCAR-8, 65.8 µM (inactive); in the experiment with PC-3 it was > 100 µM (inactive); in the experiment with SK-OV-3, > 100 µM (inactive); with SN12C it was > 76.2 µM (inactive). Further, the GI50 was 51.4 µM (inactive) in the experiment with U-251 and > 100 µM (inactive) in the experiment on UACC-257.
In the case of `CC(=O)O[C@H]1C(=O)[C@@]2(C)[C@H]([C@H](OC(=O)c3ccccc3)[C@]3(O)C[C@H](OC(=O)[C@H](O)[C@@H](NC(=O)C(C)(O)C(C)O)c4ccccc4)C(C)=C1C3(C)C)[C@]1(OC(C)=O)CO[C@@H]1C[C@@H]2O` (stereo not given in full), the GI50 is 9.44 µM (inactive) in the experiment on A498; 14.4 µM (inactive) with ACHN; 15.5 µM (inactive) with CAKI-1; 0.927 µM (active) with DU-145; 0.0859 µM (active) in the experiment with HL-60; 0.205 µM (active) with IGROV-1. Also, the GI50 with MCF7 is 0.076 µM (active); with MDA-MB-231 it was 0.359 µM (active); with MDA-N it was 0.0308 µM (active); with Malme-3M, 0.226 µM (active); in the experiment on NCI-H23, 0.282 µM (active); in the experiment on NCI-H460, 0.282 µM (active). Also, the GI50 is > 50 µM (inactive) in the experiment with NCI/ADR-RES; 0.172 µM (active) in the experiment with OVCAR-3; 1.42 µM (inactive) in the experiment on OVCAR-8; 0.226 µM (active) in the experiment with PC-3; 0.231 µM (active) with SK-OV-3; 0.485 µM (active) with SN12C. Besides, the GI50 in the experiment with U-251 was 0.239 µM (active); with UACC-257, 0.381 µM (active).
For `NS(=O)(=O)c1ccc(/N=N/c2cnc(O)c(O)c2)cc1`, the GI50 with A498 is > 100 µM (inactive); in the experiment on ACHN, > 100 µM (inactive); with CAKI-1, > 100 µM (inactive); in the experiment with DU-145, 78.2 µM (inactive); in the experiment with HL-60, > 100 µM (inactive); in the experiment on IGROV-1 it was > 100 µM (inactive). The GI50 is 44.2 µM (inactive) in the experiment on MCF7; > 100 µM (inactive) in the experiment with MDA-MB-231; > 100 µM (inactive) in the experiment with MDA-N; 29.8 µM (inactive) with Malme-3M; 64 µM (inactive) with NCI-H23; > 100 µM (inactive) with NCI-H460. The GI50 was 94.2 µM (inactive) with NCI/ADR-RES; 28.8 µM (inactive) with OVCAR-3; 76.2 µM (inactive) with OVCAR-8; > 100 µM (inactive) with PC-3; > 100 µM (inactive) in the experiment on SK-OV-3; 51.9 µM (inactive) in the experiment with SN12C. For the same molecule, the GI50 is 20.8 µM (inactive) in the experiment on U-251 and 23 µM (inactive) in the experiment on UACC-257.
For `CC1=C2c3ccccc3N(S(=O)(=O)c3ccccc3)[C@H]2[C@H](C(=O)N2C3CC4CC[C@@]3(CS2(=O)=O)C4(C)C)CC1` (stereo not given in full), the GI50 in the experiment with A498 was 87.9 µM (inactive); in the experiment on ACHN, 34.3 µM (inactive); in the experiment with CAKI-1, 11.2 µM (inactive); with DU-145 it was > 100 µM (inactive); with HL-60, 0.641 µM (active); in the experiment with IGROV-1, 59.4 µM (inactive). The GI50 with MCF7 was 18 µM (inactive); in the experiment on MDA-MB-231, > 100 µM (inactive); in the experiment with MDA-N, > 10 µM (inactive); in the experiment with Malme-3M, 28.9 µM (inactive); in the experiment on NCI-H23 it was 40.6 µM (inactive); in the experiment on NCI-H460, 5.48 µM (inactive). Further, the GI50 in the experiment on NCI/ADR-RES is 35.9 µM (inactive); with OVCAR-3 it was 17 µM (inactive); in the experiment on OVCAR-8 it was 21.6 µM (inactive); in the experiment with PC-3, 8.67 µM (inactive); with SK-OV-3, 22.1 µM (inactive); with SN12C, 39.1 µM (inactive). Moreover, the GI50 is 6.59 µM (inactive) in the experiment on U-251 and 33.7 µM (inactive) in the experiment with UACC-257.
On to `COC(=O)c1c(O)ccc2c1c1c(n2Cc2ccc(Cl)cc2Cl)C(=O)c2ccccc2C1=O`, for which the GI50 is 18.1 µM (inactive) in the experiment with A498; 7.85 µM (inactive) with ACHN; 12.2 µM (inactive) in the experiment on CAKI-1; 11.6 µM (inactive) with DU-145; 13.8 µM (inactive) in the experiment on HL-60; 11.2 µM (inactive) in the experiment on IGROV-1. The GI50 with MCF7 is 4.09 µM (inactive); in the experiment with MDA-MB-231 it was 10.9 µM (inactive); in the experiment with MDA-N, 12.1 µM (inactive); in the experiment on Malme-3M, 16 µM (inactive); with NCI-H23, 10.5 µM (inactive); in the experiment on NCI-H460 it was 3.27 µM (inactive). The GI50 in the experiment on NCI/ADR-RES was 10.7 µM (inactive); in the experiment with OVCAR-3, 6.37 µM (inactive); in the experiment with OVCAR-8 it was 8.99 µM (inactive); with PC-3, 7.74 µM (inactive); in the experiment on SK-OV-3 it was 14.3 µM (inactive); in the experiment with SN12C, 2.21 µM (inactive). In addition, the GI50 in the experiment on U-251 is 10.8 µM (inactive); in the experiment on UACC-257, 15.2 µM (inactive).
Regarding `NC(=O)c1nnn(Cc2cc(Cl)c(C(=O)c3ccc(Cl)cc3)c(Cl)c2)c1N` [CARBOXYAMIDOTRIAZOLE], the GI50 is 13.7 µM (inactive) with A498; 9.46 µM (inactive) with ACHN; 12.4 µM (inactive) in the experiment with CAKI-1; 19.2 µM (inactive) with DU-145; 14.8 µM (inactive) in the experiment on HL-60; 22.5 µM (inactive) with IGROV-1. The GI50 was 11.4 µM (inactive) in the experiment on MCF7; > 36.2 µM (inactive) in the experiment with MDA-MB-231; 10.7 µM (inactive) in the experiment with MDA-N; 27.5 µM (inactive) with Malme-3M; 11.8 µM (inactive) in the experiment on NCI-H23; 14.8 µM (inactive) with NCI-H460. The GI50 in the experiment with NCI/ADR-RES was 32.1 µM (inactive); with OVCAR-3 it was 12.3 µM (inactive); in the experiment on OVCAR-8, 24.1 µM (inactive); in the experiment on PC-3, 19.5 µM (inactive); in the experiment on SK-OV-3 it was > 38.5 µM (inactive); in the experiment on SN12C, 29.2 µM (inactive). Moreover, the GI50 was 18.2 µM (inactive) in the experiment on U-251 and 7.98 µM (inactive) in the experiment with UACC-257.
